Data: the NIST ThermoML archive (doi:10.1021/je5010214)
± gives the expanded uncertainty stated by the source.

Conditions: Liquid, Vibrating tube method

CC(C)CO [2-methyl-1-propanol]
Conditions | mass density [kg/m3]
343.15 K, 50016 kPa | 802.401 ± 0.92
343.15 K, 52079 kPa | 803.724 ± 0.93
343.15 K, 54997 kPa | 805.581 ± 0.93
343.15 K, 57987 kPa | 807.46 ± 0.94
343.15 K, 62074 kPa | 809.959 ± 0.95
343.15 K, 65051 kPa | 811.734 ± 0.96
343.15 K, 66170 kPa | 812.401 ± 0.96
343.16 K, 60015 kPa | 808.691 ± 0.95
348.15 K, 94 kPa | 756.672 ± 0.81
348.15 K, 293.8 kPa | 756.914 ± 0.81
348.15 K, 481.9 kPa | 757.128 ± 0.81
348.15 K, 763.5 kPa | 757.435 ± 0.81
348.15 K, 1011 kPa | 757.701 ± 0.81
348.15 K, 1981.1 kPa | 758.826 ± 0.81
348.15 K, 3073.2 kPa | 759.88 ± 0.81
348.15 K, 5089.9 kPa | 762.131 ± 0.82
348.15 K, 7034.6 kPa | 764.092 ± 0.82
348.15 K, 9052.5 kPa | 766.106 ± 0.82
348.15 K, 9991.3 kPa | 767.026 ± 0.82
348.15 K, 15042 kPa | 771.822 ± 0.83
348.15 K, 17922 kPa | 774.408 ± 0.84
348.15 K, 19893 kPa | 776.137 ± 0.84
348.15 K, 22033 kPa | 777.985 ± 0.85
348.15 K, 22381 kPa | 778.265 ± 0.85
348.15 K, 28023 kPa | 782.927 ± 0.86
348.15 K, 29922 kPa | 784.471 ± 0.87
348.15 K, 33999 kPa | 787.493 ± 0.88
348.15 K, 34980 kPa | 788.228 ± 0.88
348.15 K, 37995 kPa | 790.467 ± 0.89
348.15 K, 40072 kPa | 791.973 ± 0.9
348.15 K, 41992 kPa | 793.388 ± 0.9
348.15 K, 45082 kPa | 795.525 ± 0.91
348.15 K, 48031 kPa | 797.589 ± 0.92
348.15 K, 52067 kPa | 800.261 ± 0.93
348.15 K, 55099 kPa | 802.242 ± 0.94
348.15 K, 60084 kPa | 805.42 ± 0.95
348.15 K, 62302 kPa | 806.758 ± 0.96
348.15 K, 65219 kPa | 808.569 ± 0.97
348.15 K, 66250 kPa | 809.201 ± 0.97
348.16 K, 12060 kPa | 769.03 ± 0.83
348.16 K, 25066 kPa | 780.513 ± 0.86
348.16 K, 32007 kPa | 786.046 ± 0.87
348.16 K, 32760 kPa | 786.619 ± 0.88
348.16 K, 32941 kPa | 786.66 ± 0.88
348.16 K, 50014 kPa | 798.878 ± 0.92
348.16 K, 58146 kPa | 804.186 ± 0.95
353.15 K, 98.1 kPa | 752.221 ± 0.81
353.15 K, 305.8 kPa | 752.433 ± 0.81
353.15 K, 384 kPa | 752.511 ± 0.81
353.15 K, 558.5 kPa | 752.696 ± 0.81
353.15 K, 929.4 kPa | 753.125 ± 0.81
353.15 K, 1073.7 kPa | 753.289 ± 0.81
353.15 K, 2082.7 kPa | 754.432 ± 0.81
353.15 K, 3025.9 kPa | 755.465 ± 0.81
353.15 K, 5017.9 kPa | 757.656 ± 0.82
353.15 K, 6957.8 kPa | 759.69 ± 0.82
353.15 K, 8976.6 kPa | 761.781 ± 0.82
353.15 K, 9990.3 kPa | 762.812 ± 0.82
353.15 K, 11934 kPa | 764.803 ± 0.83
353.15 K, 14917 kPa | 767.603 ± 0.83
353.15 K, 18020 kPa | 770.471 ± 0.84
353.15 K, 19983 kPa | 772.259 ± 0.85
353.15 K, 22060 kPa | 773.965 ± 0.85
353.15 K, 24899 kPa | 776.429 ± 0.86
353.15 K, 27951 kPa | 778.961 ± 0.86
353.15 K, 29947 kPa | 780.584 ± 0.87
353.15 K, 31942 kPa | 782.185 ± 0.88
353.15 K, 32982 kPa | 782.978 ± 0.88
353.15 K, 33037 kPa | 783.002 ± 0.88
353.15 K, 33907 kPa | 783.604 ± 0.88
353.15 K, 35053 kPa | 784.493 ± 0.88
353.15 K, 37939 kPa | 786.664 ± 0.89
353.15 K, 39830 kPa | 788.076 ± 0.9
353.15 K, 41863 kPa | 789.556 ± 0.9
353.15 K, 44753 kPa | 791.642 ± 0.91
353.15 K, 47880 kPa | 793.816 ± 0.92
353.15 K, 49780 kPa | 795.14 ± 0.93
353.15 K, 51876 kPa | 796.535 ± 0.93
353.15 K, 55023 kPa | 798.765 ± 0.94
353.15 K, 55678 kPa | 799.178 ± 0.94
353.15 K, 57869 kPa | 800.594 ± 0.95
353.15 K, 59971 kPa | 801.962 ± 0.96
353.15 K, 62015 kPa | 803.245 ± 0.96
353.15 K, 64989 kPa | 805.09 ± 0.97
353.15 K, 66151 kPa | 805.82 ± 0.97
358.15 K, 91.6 kPa | 747.694 ± 0.81
358.15 K, 304.9 kPa | 747.895 ± 0.81
358.15 K, 517.3 kPa | 748.147 ± 0.81
358.15 K, 850.1 kPa | 748.568 ± 0.81
358.15 K, 1095.5 kPa | 748.835 ± 0.81
358.15 K, 2101.6 kPa | 750.029 ± 0.81
358.15 K, 3210.6 kPa | 751.303 ± 0.81
358.15 K, 5324.2 kPa | 753.465 ± 0.82
358.15 K, 7190.1 kPa | 755.483 ± 0.82
358.15 K, 9074.3 kPa | 757.505 ± 0.82
358.15 K, 10165 kPa | 758.644 ± 0.83
358.15 K, 12208 kPa | 760.738 ± 0.83
358.15 K, 13986 kPa | 762.552 ± 0.83
358.15 K, 15000 kPa | 763.577 ± 0.84
358.15 K, 17866 kPa | 766.293 ± 0.84
358.15 K, 20104 kPa | 768.379 ± 0.85
358.15 K, 27962 kPa | 775.177 ± 0.87
358.15 K, 30131 kPa | 776.699 ± 0.87
358.15 K, 32076 kPa | 778.299 ± 0.88
358.15 K, 32938 kPa | 778.904 ± 0.88
358.15 K, 33039 kPa | 779.08 ± 0.88
358.15 K, 33914 kPa | 779.672 ± 0.88
358.15 K, 34978 kPa | 780.53 ± 0.89
358.15 K, 37986 kPa | 782.876 ± 0.9
358.15 K, 39996 kPa | 784.402 ± 0.9
358.15 K, 42079 kPa | 785.976 ± 0.91
358.15 K, 45119 kPa | 788.207 ± 0.92
358.15 K, 48100 kPa | 790.343 ± 0.93
358.15 K, 49987 kPa | 791.672 ± 0.93
358.15 K, 52101 kPa | 793.112 ± 0.94
358.15 K, 54983 kPa | 795.084 ± 0.95
358.15 K, 58017 kPa | 797.106 ± 0.95
358.15 K, 60055 kPa | 798.438 ± 0.96
358.15 K, 62083 kPa | 799.766 ± 0.97
358.15 K, 65016 kPa | 801.626 ± 0.98
358.15 K, 66339 kPa | 802.467 ± 0.98
358.16 K, 22005 kPa | 770.073 ± 0.85
358.16 K, 25079 kPa | 772.781 ± 0.86
363.15 K, 53.2 kPa | 742.307 ± 0.81
363.15 K, 125.5 kPa | 742.405 ± 0.81
363.15 K, 320.3 kPa | 742.647 ± 0.81
363.15 K, 562.5 kPa | 742.935 ± 0.81
363.15 K, 892.5 kPa | 743.339 ± 0.81
363.15 K, 1001.3 kPa | 743.446 ± 0.81
363.15 K, 1911.6 kPa | 744.576 ± 0.81
363.15 K, 2977.3 kPa | 745.832 ± 0.81
363.15 K, 4957.5 kPa | 748.169 ± 0.82
363.15 K, 6937.4 kPa | 750.436 ± 0.82
363.15 K, 8892.9 kPa | 752.564 ± 0.82
363.15 K, 10033 kPa | 753.801 ± 0.83
363.15 K, 11914 kPa | 755.769 ± 0.83
363.15 K, 14908 kPa | 758.826 ± 0.84
363.15 K, 17925 kPa | 761.773 ± 0.84
363.15 K, 19995 kPa | 763.754 ± 0.85
363.15 K, 21953 kPa | 765.578 ± 0.85
363.15 K, 24962 kPa | 768.273 ± 0.86
363.15 K, 27932 kPa | 770.858 ± 0.87
363.15 K, 30163 kPa | 772.879 ± 0.88
363.15 K, 32029 kPa | 774.439 ± 0.88
363.15 K, 33151 kPa | 775.369 ± 0.88
363.15 K, 33315 kPa | 775.421 ± 0.88
363.15 K, 34086 kPa | 776.049 ± 0.89
363.15 K, 35189 kPa | 776.934 ± 0.89
363.15 K, 37932 kPa | 779.076 ± 0.9
363.15 K, 40070 kPa | 780.754 ± 0.9
363.15 K, 41883 kPa | 782.107 ± 0.91
363.15 K, 44755 kPa | 784.308 ± 0.92
363.15 K, 48054 kPa | 786.713 ± 0.93
363.15 K, 50037 kPa | 788.134 ± 0.94
363.15 K, 51977 kPa | 789.492 ± 0.94
363.15 K, 55048 kPa | 791.627 ± 0.95
363.15 K, 57990 kPa | 793.615 ± 0.96
363.15 K, 60071 kPa | 794.972 ± 0.97
363.15 K, 62073 kPa | 796.302 ± 0.97
363.15 K, 64996 kPa | 798.178 ± 0.98
363.15 K, 66050 kPa | 798.847 ± 0.98
